Assay results taken from patent publication US11596668B2, “Tissue repair” (THE UNIVERSITY OF SUSSEX, priority 2017, dated 2023).

Tests used:
[1] = tested on: rat aortic smooth muscle cells; experiment: Proliferation assay, smooth muscle cells; assay type: cell-based; conditions: 0-200 μM, 24 h
Method: (§1) Proliferation assay: Proliferation of rat aortic endothelial cells (RAECs) and rat aortic smooth muscle cells (isolated from rats at animal unit at Sussex University) was evaluated using Trypan Blue exclusion test. Cells were seeded in 96 well plates at a seeding density of 1×10^4 cells/mL (0.15 mL/well). After 24 h, cells where treated with or without different concentrations of 2 HIF-1 inducers; DMOG and BIQ (0-200 μM). After another 24 hours, Trypan Blue was added and the cells that were stained (dead) and unstained (live) were counted. Results were expressed as number of cells/mL.

[2] = tested on: rat aortic endothelial cells (RAECs); experiment: Proliferation assay, endothelial cells; assay type: cell-based; conditions: 24 h; for proliferation of rat aortic endothelial cells: 100 μM (0.1 mM); for optimum concentration for enhancing proliferation of rat aortic endothelial cells: tested 0-200 μM
Method: as §1

[3] = tested on: vascular endothelial growth factor (VEGF); experiment: VEGF gene expression by real time qPCR in RAECs; assay type: cell-based, rat; conditions: 100 μM, 18 h, 21% O2; reaches level similar to cells at 1% oxygen
Method: (§2) Cell culture: Rat aortic endothelial cells (RAECs) were seeded into 24-well plates and cultured until ˜80% confluent after which they were incubated with or without DMOG for 18 h at normal oxygen levels (21% O2). Cells incubated at 1% O2 where used as a positive control for HIF-1.
Real time qPCR: The gene expression of vascular endothelial growth factor (VEGF), a HIF-1 target gene, was analysed by quantitative polymerase chain reaction (qPCR). Cells were lysed using TRIzol (Invitrogen, Life Technologies) and RNA was then extracted and purified. RNA quality and concentration were determined using a NanoDrop ND-1000 (NanoDrop Technologies). Reverse transcription and real-time quantitative PCR (qPCR) were carried out on RNA samples for VEGF and β2-microglobulin (a housekeeping gene not affected by change in oxygen levels), using TaqMan gene expression assays (Applied Biosystems/Life Technologies). For gene expression quantification, the comparative threshold cycle (ΔΔCT) method was used following manufacturer's guide-lines. Results were normalized to β2-microglobulin expression and expressed as arbitrary units using one of the normoxic untreated samples as a calibrator. […]

[4] = tested on: vascular endothelial growth factor (VEGF); experiment: VEGF gene expression in carotid artery by qPCR after local application; assay type: in vivo, Sprague Dawley rats; conditions: 24 h
Method: (§3) Male animal study: Sprague Dawley rats (450 g) were used in this study. Animals were anesthetized using 2% isoflurane where the rats were placed in a supine position. The right carotid artery was exposed and DMOG was applied locally at different concentrations (0-7.5 mg/Kg) on the artery using pluronic gel (30% w/w). 3 rats were used in each concentration group.
Real time qPCR: RNA was extracted and purified from the frozen artery sections using TRIzol (Invitrogen, Life Technologies). RNA quality and concentrations were determined using a NanoDrop ND-1000 (NanoDrop Technologies). Reverse transcription and real-time quantitative PCR (qPCR) were carried out on RNA samples for VEGF and β2-microglobulin as described in example 2.

[5] = tested on: HIF-1; experiment: HIF-1 in plasma by ELISA after local application on carotid artery; assay type: in vivo, Sprague Dawley rats; conditions: 24 h
Method: as §3
ELISA: After 24 h, blood was taken from the rat's tail in tubes containing EDTA as an anti-coagulant. Blood was kept on ice and centrifuged to separate the plasma which was immediately treated with a protease inhibitor. HIF-1 was quantified in the collected plasma using the ELISA assay as described in example 2. After 24 h, treated animals were culled and both the right (treated) and left (untreated) carotid arteries were isolated and snap frozen for further analysis.

[6] = tested on: HIF-1; experiment: HIF-1 in plasma by ELISA post balloon injury; assay type: in vivo, Sprague Dawley rats; conditions: DMOG 5 mg/Kg local hydrogel, 24 h post injury
Text: (§4) Angioplasty model: Balloon catheter injury (angioplasty) was the model used as an in vivo injury model using Sprague Dawley rats (450 g). Animals were anesthetized using 2% isoflurane where the rats were placed in a supine position. The right carotid artery was exposed and a (2F Fogarty catheter) was used to cause injury. The catheter was inserted into the common carotid artery via the external carotid to cause complete removal of the vascular endothelium from the common carotid artery down to its junction with the aortic arch. DMOG (5 mg/Kg) and EPO (100 ug/Kg) were administered either alone or in combination in the form of a hydrogel (30% w/v pluronic F127 gel) and applied to the artery after injury. Endothelial regrowth was then assessed using Evan's blue staining (injected IV in the tail vein 30 min before culling the animal) 0 and 5 days after injury to assess the area of de-endothelialised surface; re-endothelialised regions remain unstained. Images of stained arteries were quantified using Image J software.
ELISA: Blood was collected from venous tail at 0, 1 and 5 days post injury. Plasma was separated and used for quantitative measurement of HIF-1 using ELISA method as described earlier.

[7] = tested on: rat carotid artery; experiment: Balloon catheter injury (angioplasty) model, endothelial regrowth by Evan's blue staining; assay type: in vivo, Sprague Dawley rats; conditions: DMOG 5 mg/Kg alone, local hydrogel, 5 days after injury
Text: as §4

[8] = tested on: human keratinocytes (HaCaT); experiment: Scratch assay, skin injury model, keratinocytes; assay type: cell-based; conditions: agent alone (DMOG 100 μM or EPO 1 ng/ml), 3% serum, 21% oxygen, vs untreated cells
Method: (§5) An in vitro injury model using cells relevant to wound injury were used. Two different cell lines; human keratinocytes (HaCaT) and human fibroblasts were used as skin injury models.
(§6) Scratch assay: As described in example 3, the reparative effect of EPO (1 ng/mL) and DMOG (100 uM) were tested alone or in combination on HaCaT and fibroblasts incubated in cell culture medium (Dulbeccos cell culture medium) containing 3% serum in 21% oxygen for 24 h.

[9] = tested on: human fibroblasts; experiment: Scratch assay, skin injury model, fibroblasts; assay type: cell-based; conditions: agent alone (DMOG 100 μM or EPO 1 ng/ml), 3% serum, 21% oxygen, vs untreated cells
Method: as §5, §6

[10] = tested on: HIF-1; experiment: HIF-1 protein levels in cell lysates by ELISA; assay type: cell-based, rat; conditions: 100 μM, 18 h, 21% O2; reaches level similar to cells at 1% oxygen
Method: as §2
Enzyme linked immunosorbent assay (ELISA): HIF-1 protein levels were measured using ELISA. Treated cells were lysed in 80 μL lysis buffer (25 mmol/L Tris HCl pH 7. 6, 0.1% SDS, deoxycholate, 1% NP40, 0.5 mol/L EDTA, 40 mmol/L EGTA and protease inhibitors). Lysates were then centrifuged at 11,000 g for 15 min at 4° C. and the supernatant was collected. Protein concentrations were quantified using a BCA reagent kit (Pierce Biotechnology). HIF was measured using an ELISA kit (R&D systems and biotechne, UK) and expressed as pg/mg protein.
Similar to the methods described in example 2, HIF-1 protein expression and VEGF gene expression were quantitatively measured in vitro using ELISA and real time qPCR respectively using different the different HIF-1 inducers at different concentrations (0-500 uM).

[11] = tested on: rat aortic endothelial cells (RAECs); experiment: Scratch assay (in vitro injury model), wound closure; assay type: cell-based; conditions: HIF-1 inducer 100 μM alone, 21% oxygen, 5% serum, vs untreated cells
Method: Scratch assay: This assay was used as an in vitro model of injury in rat aortic endothelial cells (RAECs). The effect of EPO on wound closure was investigated in either 21% or 1% O2. A reproducible scratch was produced in the endothelial monolayer and thereafter, either EPO (1 ng/mL) or saline (control) was added to the cells (in rat endothelial growth medium containing 5% serum) and subsequently incubated in 21% or 1% O2 for 24 hours. The defined area of the scratch was photographed under an inverted microscope (Olympus CKX41; Olympus Corporation, Tokyo, Japan) at lox magnification using a Micropix 5 megapixel colour complementary metal-oxide semiconductor digital camera (Olympus Cooperation). The position of the wound image was standardized each time against a horizontal line drawn on the base of the plate passing through the centre of each well. The scratch area was quantified using ImageJ software (National institutes of Health, Bethesda, Md., USA).
Scratch assay: Scratch assay was used as described in example 1. Cells where treated with DMOG (100 μM) and/or EPO (at 1 ng/mL). Cells incubated with medium containing 10% serum where used as positive control to reflect the maximum wound closure the cells could attain after 24 h. […]

[12] = 0-7.5 mg/Kg applied locally on carotid artery in pluronic gel
[13] = local application on carotid artery

SMILES	proliferation of smooth muscle cells [1]	proliferation of rat aortic endothelial cells [2]	optimum concentration for enhancing proliferation of rat aortic endothelial cells [2] [µM]	gene expression of VEGF [3]	gene expression of VEGF in carotid artery [4, 12]	optimal dose to cause an increase in VEGF [4, 13] [mg/kg]	HIF levels in plasma [5, 12]	optimal dose to cause an increase in HIF-1 [5, 13] [mg/kg]	HIF-1 levels in rat plasma [6]	repair of the endothelial lining of rat carotid artery [7]	% wound closure after 24 h [8]	% wound closure after 24 h [9]	HIF levels in cell lysates [10]	% wound closure after 24 h [11]
O=C(O)CNC(=O)c1nc(Cl)c2ccccc2c1O [BIQ, N-[(1-Chloro-4-hydroxy-3-isoquinolinyl)carbonyl]glycine]	no effect	enhanced	100											
COC(=O)CNC(=O)C(=O)OC [DMOG, dimethyloxalylglycine]	no effect	enhanced	100	increase	concentration dependent effect	5	concentration dependent effect	5	significantly increased	significant effect	no significant different	no significant different	increase	
O=C(O)CNC(=O)c1c(O)c2ccccc2n(Cc2ccccc2)c1=O [IOX, N-[[1,2-Dihydro-4-hydroxy-2-oxo-1-(phenylmethyl)-3-quinolinyl]carbonyl]glycine]														no change
